Patent publication US11332438B2, “Creatine prodrugs, compositions and methods of use thereof” (Ultragenyx Pharmaceutical Inc., priority 2017, dated 2022)
“Also recorded” adds a separate entry of the source. Like-named read-outs stand apart in the source and are kept apart here.

Tests used:
[1] = rcm bond, DCM, 50.0 °C
[2] = Liver microsome stability, mouse; format: in vitro ADME; conditions: liver microsomes, pH 7.4, Table 2A, read-out: Microsome Stability Mouse t1/2
Method in brief: (§1)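 Test compound incubated with mouse or human liver microsomes and NADPH in 0.1 M potassium phosphate, 1.0 mM EDTA, pH 7.4, with a 60-min no-NADPH control. Samples quenched with ACN containing internal standard at 0, 5, 10, 20, 30 and 60 min, then analysed by LC/MS.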

[3] = Liver microsome stability, human; format: in vitro ADME; conditions: liver microsomes, pH 7.4, Table 2A, read-out: Microsome Stability Human t1/2
Method in brief: as §1

[4] = system: ARPE-19 cells; experiment: Creatine prodrug uptake and d3-creatine release in ARPE-19 cells (Table 4A); format: cell-based, human; conditions: 50 μM, 6 h, cytosol fraction, corrected for total protein
Procedure: At the end of the incubation, supernatant will be collected from each well to assess prodrug recovery. Cells are then washed 3× with PBS. Plates, prodrugs in supernatant, prodrugs in serum-free medium are stored at −80° C. until harvest (within 5 days). On the day of extraction, 130 uL of lysis buffer (10 mM Tris pH 7.4) with EDTA-free protease inhibitors is added to each well and cells are removed using a cell scraper. Lysates are further homogenized using a handheld pestle and then centrifuged at 16,000 g, […], for 10 minutes to collect cytosol fraction. Pellets will be stored at −80° C. until further analysis. A 4× volume of stop solution (80% ACN/20% water) will be added to the cytosol fraction, supernatant and medium. Samples will be centrifuged at 15,890 g (13,000 rpm) at 4° C. for 10 mins. Supernatant will be collected and stored at −80° C. within 5 days prior to LC-MS/MS analysis. Dosing solutions for each prodrug (10 μM) will be assayed to verify concentration. Cells alone with vehicle will serve as controls to assess background signal for LC-MS/MS. Two independent runs of experiment will be conducted.
Nine fatty acid amide creatine prodrugs were tested in human ARPE-19 cells to assess prodrug uptake and d3-Cr release inside the cells. 50 μM of prodrug was incubated in culture medium with the cells and the cells were harvested at 6 h. Quantitation of prodrugs, d3-Cr (d3-creatine) and d3-Cm (d3-creatinine) in the cytosol fraction was corrected for total protein concentration.

[5] = Plasma stability, human plasma; format: in vitro ADME; conditions: Table 2A, 37 °C, read-out: Plasma Stability Human t1/2
Method in brief: (§2)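 Test article, 1 µM final (from 10% DMSO/water), incubated at 37 °C in plasma adjusted to pH 7.4 if needed; samples at 0, 2, 5, 15 and 30 min quenched with ice-cold 80% acetonitrile. Remaining compound by LC-MS/MS; half-life in minutes calculated.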

[6] = Chemical stability in simulated gastric fluid (SGF) without pepsin; format: physicochemical; conditions: Table 2A, 50 μM prodrug
Method in brief: (§3)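 Incubations used 50 μM compound at 37 °C in phosphate buffered saline, fasted simulated intestinal fluid without pancreatin, or fasted simulated gastric fluid without pepsin.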

[7] = Plasma stability, mouse plasma; format: in vitro ADME; conditions: Table 2A, 37 °C, read-out: Plasma Stability Mouse t1/2
Method in brief: as §2

[8] = Chemical stability in phosphate buffered saline (PBS); format: physicochemical; conditions: Table 2A, 50 μM prodrug
Method in brief: as §3

[9] = In vivo IV dosing in CrT KO mice: prodrug, d3-Cr and d3-Crn in brain (Table 5)
Procedure: A creatine prodrug is administered as an intravenous bolus injection to groups of three to six adult male CD1 mice at an appropriate creatine prodrug dose equivalent per kg body weight. Animals are conscious at the time of the experiment. Blood samples (0.3 mL) are obtained via a jugular vein cannula at intervals over 8 hours following IV dosing. Blood is processed into plasma, then the plasmais immediately frozen at −80° C. until analyzed by LC-MS/MS. Samples may also be taken form the CSF or other appropriate biological fluid. Brains were collected and flash frozen immediately in liquid nitrogen. Brains were homogenized in 100 mM KPI buffer with a cocktail of anti-proteases on the same day as the sample preparation required for LC-MS/MS analysis.
Several prodrugs with either free COOH group and ester linkage and macrocycles were selected for IV dosing in animal study to assess PK and d3-Cr release in brain in vivo. Prodrugs were IV dosed in CrT KO mice at 10, 15, or 25 mg/kg in animal studies. Mouse brain homogenates (MBH) were prepared from brains collected from mice after dosing. Levels of prodrug, d3-Cr and d3-Crn were quantified in brain and expressed in brain concentration (for macrocycle prodrugs) or AUC (for linear prodrugs) over time. Very few prodrugs were detected in MBH.

[10] = Prodrug cleavage in human brain homogenates (HBH): d3-Cr release and d3-Crn cyclization; format: in vitro ADME; conditions: for Prodrug Cleavage Human BH d3-Crn release / Prodrug Cleavage Human BH net d3-Cr release: 200 μM prodrug, 3 h, % of nominal input; for Prodrug Cleavage Human BH net d3-Cr release: negative control subtracted
Procedure: (§4) For assessment of the ability of prodrugs to release creatine, and to release creatine preferentially to unwanted cyclization to creatinine, d3-labeled (deuterium labeled methyl group) prodrugs are incubated with brain homogenates (e.g., mouse, human) specially prepared to preserve FAAH activity or with rFAAH for direct cleavage study. The use of d3-labelled prodrugs is essential in order to distinguish prodrug-derived creatine (d3-creatine) from high concentrations of endogenous (non-labeled) creatine. […] Prodrugs are tested at final concentrations of 20 μM and 200 μM. Approximately 3-4 mg of homogenate is used for each reaction. Co-factor (NADPH) is included at a final concentration of 1 mM. FAAH activity is confirmed by conversion of 7-amino-4-methyl Coumarin-Arachidonamide to 7-amino-4-methyl Coumarin by fluorescent assay. Negative controls include incubations without brain homogenate/rFAAH (but with NADPH) or 65° C. heat inactivated brain homogenate/rFAAH to assess non-enzymatic prodrug cleavage under the conditions of the assay and FAAH inhibitor […] at the concentration of 1 μM. Prodrug incubations are prepared by addition of 8 μL of prodrug stock solution (500 or 5000 μM in DMSO or DMSO/methanol) to assay buffered, followed by addition of brain homogenate/rFAAH. […] The samples are centrifuged at 15890×g for 10 minutes at 4° C., followed by transfer of the supernatants for storage at −20° C. pending LC-MS/MS analysis. Sample supernatants are analyzed by LC-MS/MS for determination of d3-prodrug, d3-creatine and d3-creatinine levels.
(§5) Deuterated creatine prodrugs were tested in 3 different in vitro assays to assess d3-creatine (d3-Cr) release and cyclization to form d3-creatinine (d3-Crn). These assays were 1) direct cleavage with recombinant human FAAH enzyme (rFAAH), 2) cleavage in mouse brain homogenates (MBH), and 3) human brain homogenates (HBH).
(§6) Creatine prodrug cleavage efficiency was determined by percentage of net d3-Cr release in μM (positive reaction subtracted from negative control of no brain homogenate/rFAAH or inactivated brain homogenate/rFAAH) over nominal input concentration of 200 μM prodrug at 3 h. Propensity for creatinine cyclization was determined by percentage of d3-Crn generated in μM in positive reaction over nominal input concentration of 200 μM prodrug at 3 h.

[11] = biological target: T1, recombinant human FAAH enzyme (rFAAH) (Homo sapiens, UniProt O00519); experiment: Direct prodrug cleavage with recombinant human FAAH enzyme (rFAAH): d3-Cr release and d3-Crn cyclization; format: biochemical; conditions: 200 μM prodrug, 3 h; result in words
T1 sequence (O00519 1-579): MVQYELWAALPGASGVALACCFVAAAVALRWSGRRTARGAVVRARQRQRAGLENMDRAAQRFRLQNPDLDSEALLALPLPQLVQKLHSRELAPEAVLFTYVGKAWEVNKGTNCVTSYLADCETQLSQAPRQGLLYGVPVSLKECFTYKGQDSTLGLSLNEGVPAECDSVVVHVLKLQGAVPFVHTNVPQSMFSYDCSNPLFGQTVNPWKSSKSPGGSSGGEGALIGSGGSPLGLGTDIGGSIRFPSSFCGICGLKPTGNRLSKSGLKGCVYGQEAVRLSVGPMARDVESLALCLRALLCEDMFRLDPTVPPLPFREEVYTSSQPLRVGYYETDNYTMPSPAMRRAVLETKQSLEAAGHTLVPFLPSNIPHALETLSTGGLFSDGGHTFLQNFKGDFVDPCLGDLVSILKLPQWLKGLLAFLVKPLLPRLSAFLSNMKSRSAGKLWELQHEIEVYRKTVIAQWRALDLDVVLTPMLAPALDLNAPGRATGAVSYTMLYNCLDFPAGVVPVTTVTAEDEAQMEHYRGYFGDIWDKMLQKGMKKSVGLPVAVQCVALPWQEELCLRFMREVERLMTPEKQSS
Procedure: as §4, §5, §6

[12] = in vitro cleavage assays (Table 3A)

SMILES: CN1CC(=O)OC(C)(C)CC=CCCCCCCCC(=O)NC1=NC(=O)OCc1ccccc1
- ring closure, isolated yield ([1]; from [2H]C([2H])([2H])N(CC(=O)OC(C)(C)CC=C)/C(=N\C(=O)OCc1ccccc1)NC(=O)CCCCCCCC=C, 18-membered ring, Grubbs II (10 mol%), 2.0 mM, 2.0 h): 79%

SMILES: CN1CC(=O)OC(C)(C)CCCC=CCCC(=O)NC1=NC(=O)OCc1ccccc1
- ring closure, isolated yield ([1]; from [2H]C([2H])([2H])N(CC(=O)OC(C)(C)CCCC=C)C(=NC(=O)OCc1ccccc1)NC(=O)CCC=C, 15-membered ring, Grubbs II): 50%

SMILES: [2H]C([2H])([2H])N1CC(=O)OC2(CC/C=C/CCCCCC(=O)N/C1=N/C(=O)OCc1ccccc1)CCOC2 (centres unmarked)
- ring closure, isolated yield ([1]; from [2H]C([2H])([2H])N(CC(=O)OC1(CCC=C)CCOC1)/C(=N\C(=O)OCc1ccccc1)NC(=O)CCCCCC=C, 17-membered ring, Grubbs II (10 mol%), 1.95 mM, 2.0 h): 78%

SMILES: [2H]C([2H])([2H])N(CC(=O)[O-])C(=N)NC(=O)CCCCCCC/C=C\CCCCCCCC.[Na+] [Compound 1, Sodium N-(methyl-d3)-N—(N-oleoylcarbamimidoyl)glycinate]
- half-life at 10 μM [2]: 1.38 h
- half-life at 10 μM [3]: 2.22 h
- prodrug, Cellular Uptake [4]: 24.8 nmol/mg protien
- half-life [5]: > 3 h
- Chemical Stability SGF, no enzyme % T0 at 2 hours at 37 °C. [6]: 74%
- half-life [7]: > 3 h
- Chemical Stability PBS % T0 at 2 hours at 37 °C. [8]: 76%

SMILES: Cl.[2H]C([2H])([2H])N(CC(=O)OCCCCCCC)C(=N)NC(=O)CCCCCCCCCC [Compound 5, Heptyl N-(methyl-d3)-N—(N-undecanoylcarbamimidoyl)glycinate Hydrochloride]
- half-life at 10 μM [2]: < 0.0833 h
- half-life at 10 μM [3]: < 0.0833 h
- prodrug, Cellular Uptake [4]: BQL
- half-life [5]: 0.0833 h
- Chemical Stability SGF, no enzyme % T0 at 2 hours at 37 °C. [6]: 73%
- half-life [7]: < 0.0833 h
- Chemical Stability PBS % T0 at 2 hours at 37 °C. [8]: 23%
- AUClast prodrug in the brain ([9]; IV 10 mg/kg, CrT KO mouse brain, BQL prodrug = 41.2 ng/mL): BQL

SMILES: Cl.[2H]C([2H])([2H])N(CC(=O)OC(C)C)C(=N)NC(=O)CCCCCCCCCC [Compound 12-HCl]
- Chemical Stability SGF, no enzyme % T0 at 2 hours at 37 °C. [6]: 117%
- Chemical Stability PBS % T0 at 2 hours at 37 °C. [8]: 99%
- d3-Cr/d3-Crn release ratio in vivo (in words) ([9]; brain, CrT KO mice): favorable d3-Cr/d3-Crn ratio
- Prodrug Cleavage Human BH d3-Crn release [10]: 265.7%
- Prodrug Cleavage Human BH net d3-Cr release [10]: 2.9%
- d3-Cr release in vitro (in words) [10, 12]: small amount of d3-Cr
- d3-Crn (creatinine) cyclization in vitro (in words) [10, 12]: predominantly cyclized into creatinine; also recorded: predominantly creatinine cyclization

SMILES: [2H]C([2H])([2H])N(CC(=O)[O-])C(=N)NC(=O)c1cccnc1.[Na+] [Compound 20]
- half-life at 10 μM [2]: > 2.42 h
- half-life at 10 μM [3]: > 2.42 h
- d3-Cr, Cellular Uptake [4]: BQL
- d3-Crn, Cellular Uptake [4]: BQL
- prodrug, Cellular Uptake [4]: BQL
- half-life [5]: > 3 h
- Chemical Stability SGF, no enzyme % T0 at 2 hours at 37 °C. [6]: 78%
- half-life [7]: > 3 h
- Chemical Stability PBS % T0 at 2 hours at 37 °C. [8]: 101%

SMILES: [2H]C([2H])([2H])N(CC(=O)O)C(=N)NC(=O)CCCCCCCCCCC [Compound 30]
- half-life at 10 μM [2]: > 2.42 h
- half-life at 10 μM [3]: 1.57 h
- prodrug, Cellular Uptake [4]: 29.2 nmol/mg protien
- half-life [5]: > 3 h
- Chemical Stability SGF, no enzyme % T0 at 2 hours at 37 °C. [6]: 62%
- half-life [7]: 2.7 h
- Chemical Stability PBS % T0 at 2 hours at 37 °C. [8]: 145%

SMILES: Cl.[2H]C([2H])([2H])N(CC(=O)OC(C)C)C(=N)NC(=O)CCCCCCC/C=C\CCCCCCCC [Compound 45]
- d3-Cr, Cellular Uptake [4]: 0.74 nmol/mg protien
- d3-Crn, Cellular Uptake [4]: 1.03 nmol/mg protien
- prodrug, Cellular Uptake [4]: BQL
- Chemical Stability SGF, no enzyme % T0 at 2 hours at 37 °C. [6]: 102%
- Chemical Stability PBS % T0 at 2 hours at 37 °C. [8]: 54%
- Prodrug Cleavage Human BH d3-Crn release [10]: 22.0%
- Prodrug Cleavage Human BH net d3-Cr release [10]: 0.4%
- Prodrug Cleavage rFAAH d3-Crn release (yes/no) [11]: yes
- Prodrug Cleavage rFAAH net d3-Cr release (yes/no) [11]: no
